This note sets out measurements from patent US4710500A, “1-(4'-fluorophenyl)-3,5-substituted indoles useful in the treatment of psychic disorders and pharmaceutical compositions thereof” (H. Lundbeck A/S, priority 1985, dated 1987).

For assay [1], the system named is methylphenidate-induced gnawing. Kind of assay: Methylphenidate antagonism. The format is in vivo, mice. The note with it: for MePh Antg. ED50 (sc): *ED50 from sc administration; for ED50: Mus musculus.
For assay [2], the target named is T1, serotomin2 (5-HT2) receptors (Rattus norvegicus, UniProt P14842).
T1 construct: 5-HT2 receptors in rat cortical membranes; from tissue; host or cells: rat cortical membranes
T1 sequence (P14842 whole entry): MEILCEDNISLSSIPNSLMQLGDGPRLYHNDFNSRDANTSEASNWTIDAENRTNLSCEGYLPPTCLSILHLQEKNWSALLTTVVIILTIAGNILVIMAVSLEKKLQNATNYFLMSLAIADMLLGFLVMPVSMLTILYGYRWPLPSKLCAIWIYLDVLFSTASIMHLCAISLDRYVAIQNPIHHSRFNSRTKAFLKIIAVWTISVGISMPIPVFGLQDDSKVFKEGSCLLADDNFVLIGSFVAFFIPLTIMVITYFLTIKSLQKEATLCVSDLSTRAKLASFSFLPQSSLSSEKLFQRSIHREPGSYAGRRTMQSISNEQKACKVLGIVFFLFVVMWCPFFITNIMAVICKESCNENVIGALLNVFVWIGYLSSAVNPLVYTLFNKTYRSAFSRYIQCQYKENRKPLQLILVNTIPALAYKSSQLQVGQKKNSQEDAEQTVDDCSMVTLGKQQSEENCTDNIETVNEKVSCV
Description: 3H-spiroperidol binding, 5-HT2 receptors in rat cortical membranes. Particulars: in vitro, read-out: 3H-Spiroperidol bindings 5-HT2 receptors IC50. As to the method:
(§1) 4. ^3 H-spiroperidol bindings
The affinity of compounds to dopamine (DA) D-2 receptors and serotomin2 (5-HT2) receptors was determined by in vitro receptor binding technique. Binding of ^3 H-spiroperidol to DA D-2 receptors in rat striatal membranes and to 5-HT2 receptors in rat cortical membranes was determined as described in detail by Arnt et al. (1984).
(§2) Arnt, J., J. Hyttel and J.-J. Larsen: Acta pharmacol. et toxicol. 55, 363-372, 1984.

Assay [3] deals with T2, dopamine (DA) D-2 receptors (Rattus norvegicus, UniProt P61169).
T2 construct: DA D-2 receptors in rat striatal membranes; from tissue; host or cells: rat striatal membranes
T2 sequence (P61169 whole entry): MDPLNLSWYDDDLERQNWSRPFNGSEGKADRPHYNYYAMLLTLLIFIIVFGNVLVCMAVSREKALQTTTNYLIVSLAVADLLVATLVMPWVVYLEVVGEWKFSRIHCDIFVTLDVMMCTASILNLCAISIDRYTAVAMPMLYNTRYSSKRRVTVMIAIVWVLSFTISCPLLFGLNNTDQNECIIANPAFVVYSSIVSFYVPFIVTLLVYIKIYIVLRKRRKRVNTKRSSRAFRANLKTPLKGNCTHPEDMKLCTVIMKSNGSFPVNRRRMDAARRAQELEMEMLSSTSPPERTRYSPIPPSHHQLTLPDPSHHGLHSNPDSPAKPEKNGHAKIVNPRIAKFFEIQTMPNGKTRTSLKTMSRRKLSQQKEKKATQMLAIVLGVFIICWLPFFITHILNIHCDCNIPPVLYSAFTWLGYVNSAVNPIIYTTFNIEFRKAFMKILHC
Description: 3H-spiroperidol binding, dopamine D-2 receptors in rat striatal membranes. The protocol: as §1
The affinity of compounds to dopamine (DA) D-2 receptors and serotomin2 (5-HT2) receptors was determined by in vitro receptor binding technique.
Arnt, J., J. Hyttel and J.-J. Larsen: Acta pharmacol. et toxicol.

A further assay has as its target T3, 5-HT2 receptor (Rattus norvegicus, UniProt P14842).
T3 construct: from tissue; host or cells: living rats (in vivo), CNS
Kind of assay: Quipazine inhibition (head twitches). Format: in vivo. The note with it: sc 2 hours before quipazine 15 umol/kg sc. As to the method: Quipazine and a number of other compounds, which increase 5-HT2 receptor activity in the CNS, induce a characteristic rapid shake (twitch) of the head. This response is inhibited by 5-HT2 receptor antagonists (Vetulani et al. 1980, Arnt et al. 1984).
The test compound or saline is injected subcutaneously 2 hours before subcutaneous injection of quipazine hemimalecate (15umol/kg). At least 3 dose groups, each consisting of at least 4 rats, are used. The rats are individually placed in observation cages (12×25 cm) and the number of head twitches are counted 30-40 min after quipazine administration. Inhibition of head twitches is expressed in per cent of the number of head twitches in the control group. ED 50 values are calculated by log-probit analysis.
Vetulani, J., B.B. Beduarczyk, K. Reichenberg and A. Rokost: Neuropharmacology 19, 155-158, […].
as §2

A short description of a further assay: Catalepsy. Format: in vivo, rat. Particulars: for Catalep. ED50 (sc) 1-6 h / Catalep. ED50 (sc) 24 h: *ED50 from sc administration.
The mark [4] stands for this setting: i.p. test substance, mice, methylphenidate s.c. 60 mg/kg.
The mark [5] stands for this setting: rat striatal membranes, in vitro, read-out: 3H-Spiroperidol bindings DA-2 receptors IC50.
The mark [6] stands for this setting: mice, methylphenidate s.c. 60 mg/kg.
Where [7] appears, read: sc, read-out: MePh Antg. ED50 (sc).
Setting [8] is: ip, i.p. test substance, mice, methylphenidate s.c. 60 mg/kg, read-out: MePh Antg. ED50(ip).
[9] abbreviates: Rattus norvegicus, sc, 24 h, read-out: Catalep. ED50 (sc) 24 h.
Where [10] appears, read: Rattus norvegicus, sc, read-out: Catalep. ED50 (sc) 1-6 h.
Where [11] appears, read: Rattus norvegicus, po, 24 h, read-out: Catalep. ED50(po) 24 h.
The mark [12] stands for this setting: Rattus norvegicus, po, read-out: Catalep. ED50(po) 1-6 h.

The structures appear in SMILES notation. pIC50: −log10 of the molar value. Counter-ions that a name gives are not always drawn. Like-named read-outs stand apart in the source and are kept apart here.

T3 sequence (P14842 whole entry): as the sequence (P14842 whole entry) above

For `O=C1NCCN1CCN1CCN(c2cn(-c3ccc(F)cc3)c3ccc(C(F)(F)F)cc23)CC1` [Lu 23-001, 1-(4'-Flurophenyl)-3-(4-(2-imidazolidinon-1-ylethyl)-1-piperazino)-5-trifluoromethyl-1H-indole, dihydrobromide], the “MePh Antg. ED50(ip)” value in assay [1] (setting [4]) was 0.22 µmol/kg. The pIC50 was 7.74 in assay [2] and 8.18 in assay [3] (setting [5]). Also, the “Qvipaz. inh. ED50(sc)” value on 5-HT2 receptor came out at 0.047 µmol/kg. Besides, the “Catalep. ED50(po) 1-6 h” value in “Catalepsy” (po, rat, 1-6 h) is 1.2 µmol/kg. Further, the “Catalep. ED50(po) 24 h” value in “Catalepsy” (po, rat, 24 h) is 2.6 µmol/kg.
With `Cc1nccn1CCN1CC=C(c2cn(-c3ccc(F)cc3)c3ccc(C(F)(F)F)cc23)CC1` [Lu 23-173, 1-(4'-Fluorophenyl)-3-(1-(2-methyl-1-imidazole-2-ethyl)-1,2,3,6-tetrahydropyridin-4-yl)-5-trifluoromethyl-1H-indole, difumarate], the “MePh Antg. ED50 (sc)” value in assay [1] (setting [6]) was 0.77 µmol/kg. Moreover, the pIC50 in assay [2] is 7.22; in assay [3] it was 7.38. Moreover, at 5-HT2 receptor, the “Qvipaz. inh. ED50(sc)” value was over 7.1 µmol/kg. Further, the “Catalep. ED50 (sc) 1-6 h” value in the assay “Catalepsy” (rat, 1-6 h) was determined as 1.8 µmol/kg.
Take `O=C1OCCN1CCN1CC=C(c2cn(-c3ccc(F)cc3)c3ccc([N+](=O)[O-])cc23)CC1` [Lu 23-134, 1-(4'-Fluorophenyl)-5-nitro-3-(1-(2-oxazolidinon-3-ylethyl)-1,2,36-tetrahydropyridin-4-yl)-1H-indole, maleate]: the “MePh Antg. ED50 (sc)” value in assay [1] (setting [6]) stood at 9.0 µmol/kg. Besides, the pIC50 in assay [2] was 7.82; in assay [3], 8.55. In addition, the “Catalep. ED50(po) 1-6 h” value in the assay “Catalepsy” (po, rat, 1-6 h) was found to be 1.1 µmol/kg. Further, the “Catalep. ED50(po) 24 h” value in the assay “Catalepsy” (po, rat, 24 h) is over 8.8 µmol/kg.
Regarding `Fc1ccc(-n2cc(C3=CCN(CCn4cccc4)CC3)c3cc(C(F)(F)F)ccc32)cc1` [Lu 23-172, 1-(4'-Fluorophenyl)-3-(1-pyrrolo-2-ethyl)-1,2,3,6-tetrahydropyridin-4-yl)-5-trifluoromethyl-1H-indole. maleate], the ED50 in assay [1] (setting [7]) is over 70 µmol/kg. In addition, the pIC50 in assay [3] (read-out: 3H-Spiroperidol bindings DA-2 receptors IC50, rat striatal membranes, in vitro) is 7.51. The “Qvipaz. inh. ED50(sc)” value at 5-HT2 receptor was over 0.55 µmol/kg.
Regarding `CN1CC=C(c2cn(-c3ccsc3)c3ccc(Cl)cc23)CC1.O=C(O)/C=C\C(=O)O` [Lu 24-001, 5-Chloro-3-(1-methyl-1,2,3,6-tetrahydropyridin-4-yl)-1-(3-thienyl)-1H-indole, maleate], in assay [1] (setting [4]), the “MePh Antg. ED50(ip)” value was 2.6 µmol/kg. For the same compound, the pIC50 in assay [2] was 8.06. Besides, the “Qvipaz. inh. ED50(sc)” value on 5-HT2 receptor turned out to be 0.19 µmol/kg.
As for `OCCN1CC=C(c2cn(-c3ccc(F)cc3)c3ccc(F)cc23)CC1` [Lu 23-160, 5-fluoro-1-(4'-flurophenyl)-3-(1-(2-hydroxyethyl)-1,2,3,6-tetrahydropyridin-4-yl)-1H-indole, oxalate], in assay [1] (setting [6]), the “MePh Antg. ED50 (sc)” value was determined as 3.4 µmol/kg. The results for the pIC50 in assay [2] and in assay [3] were 7.47 and 7.96, respectively. For the same compound, in “Catalepsy” (rat, 24 h), the “Catalep. ED50 (sc) 24 h” value turned out to be 5.2 µmol/kg.
`O=[N+]([O-])c1ccc2c(c1)c(C1=CCN(CCO)CC1)cn2-c1ccc(F)cc1` [Lu 23-150, 1-(4'-fluoropheynl)-3-(1-(2-hydroxyethyl)-1,2,3,6-tetrahydropyridin-4-yl)-5-nitro-1H-indole]: the “MePh Antg. ED50 (sc)” value in assay [1] (setting [6]) stood at 0.07 µmol/kg. Also, the pIC50 in assay [2] is 8.00; in assay [3], 8.33. In addition, the “Catalep. ED50(po) 1-6 h” value in “Catalepsy” (po, rat, 1-6 h) was determined as 0.21 µmol/kg.
Take `CN1CCN(c2cn(-c3ccc(F)cc3)c3ccc(C(F)(F)F)cc23)CC1` [Lu 21-123, 1-(4'-Fluorophenyl)-3-(4-methylpiperazio)-5-trifluoromethyl-1H-indole, dihydrochloride]: the ED50 in assay [1] (setting [8]) worked out at 0.09 µmol/kg; in “Catalepsy” (read-out: Catalep. ED50(po) 1-6 h, po, rat, 1-6 h), 0.08 µmol/kg; in “Catalepsy” (read-out: Catalep. ED50(po) 24 h, po, rat, 24 h) it was 0.62 µmol/kg. Also, the pIC50 is 8.17 in assay [2] and 8.77 in assay [3] (setting [5]).
With `CC(C)CN1CC=C(c2cn(-c3ccc(F)cc3)c3ccc(Cl)cc23)CC1` [Lu 22-134, 5-Chloro-1-(4'-fluorophenyl)-3-(1-isobutyl-1,2,3,6-tetrahydropyridin-4-yl)-1H-indole, hydrobromide], the ED50 is 1.7 µmol/kg in assay [1] (ip, read-out: MePh Antg. ED50(ip)); over 2.7 µmol/kg in “Catalepsy” (setting [9]); 2.7 µmol/kg in “Catalepsy” (setting [10]). In assay [3], this compound gave a pIC50 of 8.28. In addition, on 5-HT2 receptor, the “Qvipaz. inh. ED50(sc)” value was 2.5 µmol/kg.
Consider `O=C1NCCN1CCN1CCC(c2cn(-c3ccc(F)cc3)c3ccccc23)CC1` [Lu 23-086, 1-(4'-Fluorophenyl)-3-(1-(2--imidazolidinon-1-ylethyl)-4-piperidyl)-1H-indole], for which the “MePh Antg. ED50 (sc)” value in assay [1] (setting [6]) is over 98 µmol/kg. For the same compound, the negative-log IC50 (pIC50) was 8.54 in assay [2] and 7.38 in assay [3] (setting [5]). Besides, the “Qvipaz. inh. ED50(sc)” value at 5-HT2 receptor was 0.036 µmol/kg.
Take `OCCCN1CC=C(c2cn(-c3ccc(F)cc3)c3ccc(F)cc23)CC1` [Lu 23-175, 5-Fluor-1-(4'-fluorophenyl)-3-(1-(3-hydroxypropyl)-1,2,3,6-tetrahydropyridin-4-yl)-1H-indole, oxalate]: the “MePh Antg. ED50 (sc)” value in assay [1] (setting [6]) amounted to 0.32 µmol/kg. In addition, the pIC50 was 8.17 in assay [2] and 7.96 in assay [3]. Besides, in the assay “Catalepsy” (rat, 1-6 h), the “Catalep. ED50 (sc) 1-6 h” value stood at 0.68 µmol/kg.
With `CN1CC=C(c2cn(-c3ccccc3F)c3ccc([N+](=O)[O-])cc23)CC1` [Lu 24-003, 1-(2'-Fluorophenyl)-5-nitro-3-(1-methyl-1,2,3,6-tetrahydropyridin-4-yl)-1H-indole, maleat], in assay [1] (setting [6]), the “MePh Antg. ED50 (sc)” value came to 0.09 µmol/kg. Also, the results for the pIC50 in assay [2] and in assay [3] were 7.85 and 8.22, respectively.
Take `CN1CC=C(c2cn(-c3ccc(F)cc3)c3ccccc23)CC1.Cl` [Lu 23-083, 1-(4'-Fluorophenyl)-3-(1-methyl-1,2,3,6-tetrahydropyridin-4-yl)-1H-indole, hydrochloride]: the ED50 was 1.3 µmol/kg in assay [1] (setting [7]), over 14 µmol/kg in “Catalepsy” (setting [11]) and 9.4 µmol/kg in the assay “Catalepsy” (setting [12]). Moreover, the pIC50 in assay [3] is 8.74. For the same compound, the “Qvipaz. inh. ED50(sc)” value on 5-HT2 receptor was 0.15 µmol/kg.
In the case of `O=[N+]([O-])c1ccc2c(c1)c(C1=CCNCC1)cn2-c1ccc(F)cc1` [Lu 23-133, 1-(4'-Fluorophenyl)-5-nitro-3-(1,2,3,6-tetrahydropyridin-4-yl)-1H-indole, maleate], the values for the ED50 (in assay [1] (setting [7]); in the assay “Catalepsy” (setting [11]); in “Catalepsy” (setting [12])) were 18 µmol/kg, over 11 µmol/kg and 11 µmol/kg, respectively. This compound gave a pIC50 in assay [3] of 8.23.
As to `OCCN1CCN(CC/C=C2/c3ccccc3Sc3ccc(C(F)(F)F)cc32)CC1` [Cis(Z)Flupentixol, reference compound], in assay [1] (setting [4]), the “MePh Antg. ED50(ip)” value was 0.14 µmol/kg. Further, at 5-HT2 receptor, the “Qvipaz. inh. ED50(sc)” value turned out to be 0.042 µmol/kg. Besides, the “Catalep. ED50(po) 1-6 h” value in the assay “Catalepsy” (po, rat, 1-6 h) turned out to be 2.4 µmol/kg. Also, the “Catalep. ED50(po) 24 h” value in the assay “Catalepsy” (po, rat, 24 h) was 19 µmol/kg.
In the case of `O=C1CCCN1CCN1CCN(c2cn(-c3ccc(F)cc3)c3ccc(C(F)(F)F)cc23)CC1` [Lu 22-133, 1-(4'-Fluorophenyl)-3-(4-(1-pyrrolidin-2-onylethyl)-1-piperazino)-5-trifluoromethyl-1H-indole], the results for the ED50 (in assay [1] (setting [8]); in “Catalepsy” (setting [9]); in the assay “Catalepsy” (setting [10])) were 0.82 µmol/kg, 1.7 µmol/kg and 0.66 µmol/kg, respectively. The pIC50 in assay [2] was 8.72. Also, the “Qvipaz. inh. ED50(sc)” value at 5-HT2 receptor came out at 0.15 µmol/kg.
As for `O=C1NCCN1CCN1CC=C(c2cn(-c3ccc(F)cc3)c3ccc([N+](=O)[O-])cc23)CC1` [Lu 23-142, 1-(4'-Fluorophenyl)-3-(1-(2-imidazolidinon-1-ylethyl)-1,2,3,6-tetrahydropridin-4-yl)-5-nitro-1H-indole], the “MePh Antg. ED50 (sc)” value in assay [1] (setting [6]) is 2.6 µmol/kg. In assay [2], the pIC50 is 8.17.
Take `O=C1CCCN1CCN1CC=C(c2cn(-c3ccc(F)cc3)c3ccc([N+](=O)[O-])cc23)CC1` [Lu 23-024, 1-(4'-Fluorophenyl)-5-nitro-3-(1-pyrrolidin-2-onylethyl)-1,2,3,6-tetrahydropyridin-4-yl)-1H-indole, hydrochloride]: the “MePh Antg. ED50(ip)” value in assay [1] (setting [4]) turned out to be 0.65 µmol/kg. Also, the pIC50 in assay [2] was 8.28. Besides, in “Catalepsy” (rat, 1-6 h), the “Catalep. ED50 (sc) 1-6 h” value stood at 6.8 µmol/kg. Further, the “Catalep. ED50 (sc) 24 h” value in the assay “Catalepsy” (rat, 24 h) is over 10 µmol/kg.
